# Assay results from PMC10081574, “Evaluation of Antiviral Activity of Gemcitabine Derivatives against Influenza Virus and Severe Acute Respiratory Syndrome Coronavirus 2” (ACS Infectious Diseases, 2023).
# Where two headings read alike, the source gives them in different places.
# Assays:
# [1] = tested on: B/Lee/40; assay: CPE reduction antiviral assay in Lee-infected MDCK cells (MTT); format: cell-based, influenza B virus; conditions: for EC50 / EC90: Influenza B virus, MDCK, 72 h; for EC50: viability of infected cells to 50%; for EC90: read-out: EC90 Lee; for SI50 Lee: ratio of CC50 to EC50; for SI90 Lee: ratio of CC10 to EC90
# [2] = tested on: influenza A and B viruses; assay: CPE reduction antiviral assay, values summarised over influenza strains PR8, HK and Lee; format: cell-based, influenza virus; conditions: for EC90 / EC50: span over PR8, HK and Lee; for EC90 / EC50 / subtoxic concentration at which over 90% viability of infected cells was recorded / recovery of viability of virus-infected cells with 90% cutoff: MDCK; for EC90: read-out: EC90 against influenza viruses; for EC50: read-out: EC50 against influenza viruses; for subtoxic concentration at which over 90% viability of infected cells was recorded / recovery of viability of virus-infected cells with 90% cutoff: day 3; for SI90 against influenza viruses / SI50 against influenza viruses: over PR8, HK and Lee; for SI90 against influenza viruses: CC10/EC90; for SI50 against influenza viruses: CC50/EC50
# [3] = tested on: A/Puerto Rico/8/34 (H1N1); conditions: for SI90 PR8: ratio of CC10 to EC90; for SI50 PR8: ratio of CC50 to EC50
# [4] = tested on: A/Hong Kong/8/68 (H3N2); conditions: for SI90 HK: ratio of CC10 to EC90; for SI50 HK: ratio of CC50 to EC50
# [5] = in vitro; conditions: dog
# [6] = tested on: A/Puerto Rico/8/34 (H1N1); assay: microbe, parasite or virus in culture; conditions: Influenza A virus, 72 h; for EC50 / EC90: H1N1 / PR8, MDCK; for EC50: read-out: EC50 PR8; for EC90: read-out: EC90 PR8; for viability at 10 µM: H1N1|PR8, MDCK, read-out: viability of PR8-infected cells in library screening
# [7] = tested on: A/Hong Kong/8/68 (H3N2); assay: microbe, parasite or virus in culture; conditions: Influenza A virus, H3N2, MDCK, 72 h; for EC50: read-out: EC50 HK; for EC90: read-out: EC90 HK; for viability at 10 µM: read-out: viability of HK-infected cells in library screening
# [8] = tested on: MDCK cells; conditions: dog, 3 days
# [9] = read-out: EC50 Lee, MDCK, MOI 0.001, day 3
# [10] = MOI 0.001, day 3, viability of infected cells to 90%
# [11] = MOI 0.001, day 3, read-out: EC50 Lee
Structure (SMILES),SI50 Lee [1],"EC90 ([2]; Influenza A virus, PR8, MDCK)",SI90 against influenza viruses [2],SI90 PR8 [3],SI50 PR8 [3],SI90 HK [4],SI50 HK [4],CC50 at 3 days [5],EC50 [6],EC90 [6],EC50 [7],EC90 [7],"EC90 [1, 10]","EC50 [1, 11]",SI90 Lee [1],CC10 [8],other results
O=C(Nc1ccn([C@@H]2O[C@H](CO)[C@@H](O)C2(F)F)c(=O)n1)c1ccccc1 [Compound 1],> 13.3,76.2 to 98.1 µM,> 1.9,> 3.9,> 6.9,> 3.1,> 5.5,> 300 µM,43.4 ± 8.6 µM,76.2 ± 30.9 µM,54.2 ± 5.1 µM,98.1 ± 0.2 µM,–,–,–,–,"EC50 [1, 9]: 22.5 ± 0.4 µM; EC90 [1]: 78.7 ± 2.7 µM; EC50 ([2]; Influenza A virus): 22.5 to 54.2 µM; subtoxic concentration at which over 90% viability of infected cells was recorded [2]: 100 µM; SI50 against influenza viruses [2]: > 5.5; EC50 ([3]; read-out: EC50 PR8): 43.5 ± 8.6 µM; viability at 10 µM [6]: 10 to 20%; viability at 10 µM [7]: 10 to 20%"
O=C(Nc1ccn([C@@H]2O[C@H](CO)[C@@H](O)C2(F)F)c(=O)n1)c1ccccn1 [Compound 2a],> 495.7,1.4 to 2.2 µM,4.4–7.1,5.5,> 342.5,7.1,> 462.2,> 300 µM,0.9 ± 0.2 µM,1.8 ± 0.5 µM,0.6 µM,1.4 ± 0.1 µM,2.2 ± 0.8 µM,0.6 µM,4.4,–,EC50 ([2]; Influenza A virus): 0.6 to 0.9 µM; subtoxic concentration at which over 90% viability of infected cells was recorded [2]: 3.7 µM; SI50 against influenza viruses [2]: > 342.5; EC90 [2]: 1.4 to 16.9 µM; viability at 10 µM [6]: > 50%; viability at 10 µM [7]: > 50%
Cc1ccc(C(=O)Nc2ccn([C@@H]3O[C@H](CO)[C@@H](O)C3(F)F)c(=O)n2)nc1 [Compound 2b],> 37.3,–,> 1.4,8.3,> 22.4,1.8,> 5.8,> 300 µM,13.4 ± 0.9 µM,25.3 ± 1.3 µM,51.8 ± 42.6 µM,117 ± 18.5 µM,43.8 ± 24.4 µM,8.1 ± 0.7 µM,4.8,209.2 ± 61.7 µM,–
Cc1cccnc1C(=O)Nc1ccn([C@@H]2O[C@H](CO)[C@@H](O)C2(F)F)c(=O)n1 [Compound 2c],> 11.5,–,> 1.4,> 2.6,> 9.2,> 7.3,> 11.2,> 300 µM,32.8 ± 5.8 µM,114 ± 24.7 µM,26.8 µM,41.2 ± 0.5 µM,–,26.2 ± 2 µM,–,>300.0 µM,–
O=C(Nc1ccn([C@@H]2O[C@H](CO)[C@@H](O)C2(F)F)c(=O)n1)c1ccc(-c2ccccc2)cn1 [Compound 2d],> 7.7,–,> 1.4,–,> 6.5,> 1.4,> 6.0,> 300 µM,46.1 ± 3 µM,119 ± 66.2 µM,50.2 ± 3.4 µM,219 ± 36.3 µM,–,–,–,>300.0 µM,"EC50 [1, 9]: 39.1 ± 3.2 µM"
O=C(Nc1ccn([C@@H]2O[C@H](CO)[C@@H](O)C2(F)F)c(=O)n1)c1ccc(F)cn1 [Compound 2f],> 94.8,10.7 to 34.3 µM,> 8.7,> 11.1,> 41.6,> 28.0,> 49.9,> 300 µM,7.2 ± 0.4 µM,26.9 ± 16.3 µM,6 ± 0.1 µM,10.7 ± 0.2 µM,25.7 ± 6.4 µM,3.2 ± 2.3 µM,> 11.7,–,–
COc1ccc(C(=O)Nc2ccn([C@@H]3O[C@H](CO)[C@@H](O)C3(F)F)c(=O)n2)nc1 [Compound 2g],> 22.6,–,> 1.4,> 4.4,> 10.5,> 9.3,> 16.1,> 300 µM,28.5 ± 4.2 µM,68.8 ± 22.7 µM,18.6 ± 0.1 µM,32.3 ± 0.7 µM,98.1 ± 16.7 µM,13.3 ± 2.7 µM,> 3.1,>300.0 µM,–
O=C(Nc1ccn([C@@H]2O[C@H](CO)[C@@H](O)C2(F)F)c(=O)n1)c1ccc([N+](=O)[O-])cn1 [Compound 2i],> 464.8,–,> 1.4,8.1,–,15.7,> 518.5,> 300 µM,1.1 µM,2.2 ± 0.2 µM,0.6 ± 0.1 µM,1.1 µM,–,–,11.0,17.9 ± 6.7 µM,"EC50 [1, 9]: 0.7 µM; EC90 [1]: 1.6 ± 0.1 µM"
Cc1ccc(C(=O)Nc2ccn([C@@H]3O[C@H](CO)[C@@H](O)C3(F)F)c(=O)n2)cn1 [Compound 3b],> 426.6,1.4 to 1.8 µM,–,5.7,> 325.8,7.3,> 437.2,> 300 µM,0.9 µM,1.8 ± 0.1 µM,0.7 µM,1.4 ± 0.2 µM,1.7 µM,0.7 µM,6.0,–,recovery of viability of virus-infected cells with 90% cutoff [2]: active
O=C(Nc1ccn([C@@H]2O[C@H](CO)[C@@H](O)C2(F)F)c(=O)n1)c1ccc(F)nc1 [Compound 3c],> 170.6,4.9 to 22.6 µM,–,20.0,> 90.6,51.2,> 116.6,> 300 µM,3.3 ± 0.1 µM,12.5 ± 3.6 µM,2.6 ± 0.4 µM,4.9 ± 0.4 µM,22.6 ± 2 µM,1.8 ± 0.3 µM,11.1,–,recovery of viability of virus-infected cells with 90% cutoff [2]: active
O=C(Nc1ccn([C@@H]2O[C@H](CO)[C@@H](O)C2(F)F)c(=O)n1)c1ccc(Cl)nc1 [Compound 3d],> 28.4,–,–,–,> 23.8,–,> 31.5,> 300 µM,12.6 ± 2.5 µM,–,9.5 ± 0.3 µM,–,–,10.6 ± 1.7 µM,–,91.1 ± 53.8 µM,–
COc1ccc(C(=O)Nc2ccn([C@@H]3O[C@H](CO)[C@@H](O)C3(F)F)c(=O)n2)cn1 [Compound 3e],> 16.2,–,–,–,> 12.8,–,> 12.5,> 300 µM,23.5 ± 4.1 µM,–,24 ± 2 µM,–,–,18.5 ± 2 µM,–,129.7 ± 74.0 µM,–
O=C(Nc1ccn([C@@H]2O[C@H](CO)[C@@H](O)C2(F)F)c(=O)n1)c1ccc(C(F)(F)F)nc1 [Compound 3f],> 73.9,–,–,–,> 73.6,–,> 84.7,> 300 µM,4.1 ± 0.3 µM,–,3.5 ± 0.6 µM,–,–,4.1 ± 0.1 µM,–,7.9 ± 8.4 µM,–
Cc1nc(C(F)(F)F)ccc1C(=O)Nc1ccn([C@@H]2O[C@H](CO)[C@@H](O)C2(F)F)c(=O)n1 [Compound 3g],–,–,–,–,–,–,–,> 300 µM,–,–,–,–,–,–,–,8.7 ± 8.2 µM,antiviral activity against influenza viruses (in words) [2]: completely lost antiviral activity
"NC(=O)c1nc(F)c[nH]c1=O [Favipiravir, reference compound]",> 200.0,–,–,> 35.3,> 166.7,> 43.5,> 100.0,> 300 µM,1.8 ± 0.1 µM,8.5 ± 0.2 µM,3 ± 0.4 µM,6.9 ± 1.8 µM,16.3 ± 4.2 µM,1.5 ± 0.2 µM,> 18.4,>300.0 µM,–
"CCC(CC)O[C@@H]1C=C(C(=O)O)C[C@H](N)[C@H]1NC(C)=O [Oseltamivir carboxylate, reference compound]",> 30.0,–,–,> 24.0,> 375.0,> 600.0,"> 6,000",> 300 µM,0.8 ± 0.4 µM,12.5 ± 8.1 µM,< 0.05 µM,0.5 ± 0.2 µM,60.4 ± 0.1 µM,10 ± 0.9 µM,> 5.0,>300.0 µM,–
